According to patent US8324380B2, “Amino-heteroaryl-containing prokineticin 1 receptor antagonists” (Janssen Pharmaceutica NV, priority 2007, dated 2012):
pIC50: −log10 of the molar value. Where “and” joins values, the source holds several entries; their conditions need not be identical. Equal entries are not always repeated. Where two headings read alike, the source gives them in different places.

Molecular target: T1, GPR73 (prokineticin 1 receptor) (Homo sapiens, UniProt Q8TCW9)
T1 construct: expressed in transfected cells; host or cells: HEK 293
T1 sequence (Q8TCW9 whole entry, species assumed): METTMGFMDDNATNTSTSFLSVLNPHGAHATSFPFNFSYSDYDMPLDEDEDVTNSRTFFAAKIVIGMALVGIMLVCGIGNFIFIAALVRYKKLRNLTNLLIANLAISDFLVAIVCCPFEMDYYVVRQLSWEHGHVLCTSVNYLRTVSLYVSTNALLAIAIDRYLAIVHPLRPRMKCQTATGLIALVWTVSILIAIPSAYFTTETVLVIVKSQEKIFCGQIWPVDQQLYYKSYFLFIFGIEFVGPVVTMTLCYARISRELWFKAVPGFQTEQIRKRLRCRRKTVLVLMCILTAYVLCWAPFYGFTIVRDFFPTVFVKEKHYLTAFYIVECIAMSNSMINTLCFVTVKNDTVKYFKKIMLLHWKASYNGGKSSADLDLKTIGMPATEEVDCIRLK
Assay: PK1 functional assay: Ca2+ mobilization on the FLIPR
Format: cell-based
Conditions: for inhibition at 10 µM: read-out: Ca^2+ Mobilization % Inh @10 µM; for pIC50: HEK 293 GPR73 cells, read-out: Ca^2+ Mobilization IC50
Procedure: At a time of 24 h prior to running the assay, in cell culture media (DMEM containing high Glucose and L-glutamine, 10% FBS, 1% Pen/Streptomycin, 1% Sodium Pyruvate, 20 mM HEPES, Zeocin 200 mg/L), 100 µL of 1.3*10^6/ml HEK 293 GPR73 (prokineticin 1 receptor) expressing cells were plated in a 96 well poly-d-lysine coated plate (Costar), and incubated at 37° C. and 5% CO2. On the day in which the assay was run, the media was removed and 200 µL of 5× Calcium Plus Dye (Molecular Devices) which was previously resuspended with 200 mL of assay buffer [HBSS w/Ca^2+ and Mg^2+ w/o phenol red, 20 mM HEPES, 0.1% BSA, 10 mL probenecid (710 mg probenecid in 5 mL of 1N NaOH, to which was then added 5 mL HBSS containing 20 mM HEPES)] was added to each well of the 96-well plate. The plate was incubated at 37° C. and 5% CO2 for 30 min in dark. The plate was removed and allowed to reach RT for 15 min in the dark. The assay was then run on the FLIPR. In Brief: base line read for 1 min, compound added (25 μL) and incubated for 4 min, 15 seconds, PK1 ligand preparation added (25 μL) for a final concentration of a previously determined EC50 and fluorescence was counted for 1 min, 45 seconds. Baseline is described as the amount of relative fluorescence read when buffer alone is added to cells. Baseline was subtracted from all wells. Percent of control was calculated as follows: (Baseline subtracted well value is divided by baseline subtracted max value)*100. Percent inhibition is 100 minus the percent of control value.
The IC50 is defined as the amount of a given compound required to inhibit 50% of the maximum signal that is generated by the concentration of PK1 preparation used in our assay. IC50 values were calculated using GraphPad Prism.

Row | SMILES | inhibition at 10 µM (10 µM) [%] | pIC50 | inhibition at 10 µM (10 µM, (further determination)) [%] | pIC50 (IC50 (further determination))
1 | NC1=Nc2ccc(Cl)cc2CN1CCNc1nc(=O)n(Cc2ccc(F)cc2)c(=O)n1Cc1ccc(OC(F)F)cc1 [Cpd 43] | 101 | 6.95 | – | –
2 | Nc1nc2ccc(F)cc2n1CCNc1nc(=O)n(Cc2ccc(F)cc2)c(=O)n1Cc1ccc(OC(F)(F)F)cc1 [Cpd 33] | 93 | 6.49 | – | –
3 | COc1ccc(Cn2c(NCCn3c(N)nc4ccc(Cl)cc43)nc(=O)n(Cc3ccc(F)cc3)c2=O)cc1 [Cpd 10] | 90 | 6.81 | – | –
4 | CCc1ccc(Cn2c(=O)nc(NCCn3c(N)nc4ccccc43)n(Cc3ccc(OC)cc3)c2=O)cc1 [Cpd 71] | 101 | 7.05 | – | –
5 | COc1ccc(Cn2c(NCCn3c(N)nc4ccccc43)nc(=O)n(Cc3ccc(Cl)c(Cl)c3)c2=O)cc1 [Cpd 69] | 102 | 7.18 | – | –
6 | Nc1nc2cc(C(F)(F)F)ccc2n1CCNc1nc(=O)n(Cc2ccc(F)cc2)c(=O)n1Cc1ccc(OC(F)F)cc1 [Cpd 27] | 85 | 6.51 | – | –
7 | Nc1nc2cc(F)ccc2n1CCNc1nc(=O)n(Cc2ccc(F)cc2)c(=O)n1Cc1ccc(OC(F)F)cc1 [Cpd 26] | 92 | 7.09 | 88 | 7.82
8 | NC1=Nc2ccc(F)cc2CN1CCNc1nc(=O)n(Cc2ccc(F)cc2)c(=O)n1Cc1ccc(OC(F)(F)F)cc1 [Cpd 51] | 99 | 6.00 | – | –
9 | Nc1nc2c(F)cc(F)cc2n1CCNc1nc(=O)n(Cc2ccc(F)cc2)c(=O)n1Cc1ccc(OC(F)(F)F)cc1 [Cpd 36] | 50 | 5.08 | – | –
10 | Cn1nnc2cc(Cn3c(=O)nc(NCCc4cnc(N)[nH]4)n(Cc4ccc5c(c4)CCO5)c3=O)ccc21 [Cpd 68] | 78 | 5.85 | – | –
11 | Nc1nc2cccc(F)c2n1CCNc1nc(=O)n(Cc2ccc(F)cc2)c(=O)n1Cc1ccc(OC(F)F)cc1 [Cpd 32] | 94 | 6.88 | – | –
12 | NC1=Nc2cccc(Cl)c2CN1CCNc1nc(=O)n(Cc2ccc(F)cc2)c(=O)n1Cc1ccc(OC(F)F)cc1 [Cpd 42] | 101 | 7.20 | – | –
13 | COc1ccc2c(c1)N=C(N)N(CCNc1nc(=O)n(Cc3ccc(F)cc3)c(=O)n1Cc1ccc(OC(F)F)cc1)C2 [Cpd 57] | 95 | 6.84 | – | –
14 | COc1ccc(Cn2c(NCCn3ccnc3N)nc(=O)n(Cc3ccc(F)cc3)c2=O)cc1 [Cpd 2, 6-[2-(2-Amino-imidazol-1-yl)-ethylamino]-3-(4-fluoro-benzyl)-1-(4-methoxy-benzyl)-1H-[1,3,5]triazine-2,4-dione] | 97 | – | 97 | 8.30
15 | COc1ccc(Cn2c(NCCn3c(N)nc4ccccc43)nc(=O)n(Cc3ccc(SC)cc3)c2=O)cc1 [Cpd 70] | 103 | 7.66 | – | –
16 | Nc1ncc(CCNc2nc(=O)n(Cc3ccc4c(c3)CCO4)c(=O)n2Cc2ccc3c(c2)CCO3)[nH]1 [Cpd 66] | 69 | 5.62 | – | –
17 | Nc1nc2cc(F)ccc2n1CCNc1nc(=O)n(Cc2ccc(F)cc2)c(=O)n1Cc1ccc(OC(F)(F)F)cc1 [Cpd 34] | 87 | 6.44 | – | –
18 | Nc1nc2ccccc2n1CCNc1nc(=O)n(Cc2ccc(Cl)c(Cl)c2)c(=O)n1Cc1ccc(OC(F)F)cc1 [Cpd 84] | 97 | 6.46 | – | –
19 | CSc1ccc(Cn2c(=O)nc(NCCn3c(N)nc4ccccc43)n(Cc3ccc4c(c3)CCO4)c2=O)cc1 [Cpd 74] | 102 | 7.47 | – | –
20 | NC1=Nc2cc(Cl)ccc2CN1CCNc1nc(=O)n(Cc2ccc(F)cc2)c(=O)n1Cc1ccc(OC(F)F)cc1 [Cpd 44] | 103 | 6.93 | – | –
21 | CCc1ccc(Cn2c(=O)nc(NCCc3cnc(N)[nH]3)n(Cc3ccc4c(c3)CCO4)c2=O)cc1 [Cpd 65] | 35 | < 5.00 | – | –
22 | Nc1ncc(CCNc2nc(=O)n(Cc3ccc(Cl)c(Cl)c3)c(=O)n2Cc2ccc(OC(F)F)cc2)[nH]1 [Cpd 79] | 96 | 6.99 | – | –

Row | SMILES | inhibition at 10 µM (10 µM) [%] | pIC50 | inhibition at 10 µM (10 µM, (further determination)) [%] | pIC50 (IC50 (further determination))
23 | COc1ccc(Cn2c(C(=O)NCCn3c(N)nc4ccccc43)cc(=O)n(Cc3ccc(OC)cc3)c2=O)cc1 [Cpd 13, 1,3-Bis-(4-methoxy-benzyl)-2,6-dioxo-1,2,3,6-tetrahydro-pyrimidine-4-carboxylic acid [2-(2-amino-benzoimidazol-1-yl)-ethyl]-amide] | 51 | 5.13 | – | –
24 | CSc1ccc(Cn2c(=O)nc(NCCc3cnc(N)[nH]3)n(Cc3ccc4c(c3)CCO4)c2=O)cc1 [Cpd 64] | 93 | 6.77 | – | –
25 | Nc1nc2ccccc2n1CCNc1nc(=O)n(Cc2ccc3c(c2)CCO3)c(=O)n1Cc1ccc(OC(F)F)cc1 [Cpd 87] | 102 | 6.65 | – | –
26 | COc1ccc(Cn2c(NCCc3cnc(N)[nH]3)nc(=O)n(Cc3ccc(Cl)c(Cl)c3)c2=O)cc1 [Cpd 59] | 96 | 7.31 | – | –
27 | Nc1nc2ccccc2n1CCNc1nc(=O)n(Cc2ccc(F)cc2)c(=O)n1Cc1ccc(OC(F)F)cc1 [Cpd 20] | 103 | 7.28 | 101 | 7.28
28 | Nc1nccn1CCNc1nc(=O)n(Cc2ccc(F)cc2)c(=O)n1Cc1ccc(F)cc1 [Cpd 21] | 37 | < 5.00 | – | –
29 | NC1=Nc2cc(F)ccc2CN1CCNc1nc(=O)n(Cc2ccc(F)cc2)c(=O)n1Cc1ccc(OC(F)F)cc1 [Cpd 46] | 101 | 7.21 | – | –
30 | COc1ccc(Cn2c(NCCn3c(N)nc4ccccc43)nc(=O)n(Cc3ccc4c(c3)CCO4)c2=O)cc1 [Cpd 72] | 102 | 7.24 | – | –
31 | Nc1nccn1CCNc1nc(=O)n(Cc2ccc(F)cc2)c(=O)n1Cc1ccc(OC(F)F)cc1 [Cpd 23] | 100 | 7.55 | 97 | 7.24
32 | Nc1ncc(CCNc2nc(=O)n(Cc3ccc(F)cc3)c(=O)n2Cc2ccc(OC(F)(F)F)cc2)[nH]1 [Cpd 54, 6-[2-(2-Amino-3H-imidazol-4-yl)-ethylamino]-3-(4-fluoro-benzyl)-1-(4-trifluoromethoxy-benzyl)-1H-[1,3,5]triazine-2,4-dione] | 96 | 7.57 and 6.74 | 95 | 7.01
33 | Nc1ncc(CCNc2nc(=O)n(Cc3ccc4c(c3)CCO4)c(=O)n2Cc2ccc(OC(F)F)cc2)[nH]1 [Cpd 82] | 96 | 6.69 | – | –
34 | Nc1nc2ccccc2n1CCNc1nc(=O)n(Cc2ccc3c(c2)CCO3)c(=O)n1Cc1ccc2c(c1)CCO2 [Cpd 76] | 97 | 6.65 | – | –
35 | Cn1nnc2cc(Cn3c(=O)nc(NCCc4cnc(N)[nH]4)n(Cc4ccc(OC(F)F)cc4)c3=O)ccc21 [Cpd 83] | 98 | 6.65 | – | –
36 | Nc1nc2ccccc2n1CCNc1nc(=O)n(Cc2ccc(F)cc2)c(=O)n1Cc1ccc(OC(F)(F)F)cc1 [Cpd 19] | 102 | 6.98 | 100 | 6.67
37 | Nc1nc2ccc(F)c(F)c2n1CCNc1nc(=O)n(Cc2ccc(F)cc2)c(=O)n1Cc1ccc(OC(F)F)cc1 [Cpd 29] | 83 | 6.39 | – | –
38 | NC1=Nc2ccc(Cl)cc2CN1CCNc1nc(=O)n(Cc2ccc(F)cc2)c(=O)n1Cc1ccc(OC(F)(F)F)cc1 [Cpd 49] | 103 | 6.63 | – | –
39 | COc1ccc(Cn2c(NCCc3cnc(N)[nH]3)nc(=O)n(Cc3ccc4c(c3)CCO4)c2=O)cc1 [Cpd 62] | 97 | 6.62 | – | –
40 | CSc1ccc(Cn2c(=O)nc(NCCc3cnc(N)[nH]3)n(Cc3ccc(OC(F)F)cc3)c2=O)cc1 [Cpd 80] | 98 | 7.49 | – | –
41 | COc1ccc(Cn2c(NCCNc3nc4ccccc4[nH]3)nc(=O)n(Cc3ccc(Cl)c(Cl)c3)c2=O)cc1 [Cpd 1, 6-[2-(1H-Benzoimidazol-2-ylamino)-ethylamino]-3-(3,4-dichloro-benzyl)-1-(4-methoxy-benzyl)-1H-[1,3,5]triazine-2,4-dione] | 40.4 | < 5.00 | – | –
42 | Nc1ncc(CCNc2nc(=O)n(Cc3ccc(Cl)c(Cl)c3)c(=O)n2Cc2ccc3c(c2)CCO3)[nH]1 [Cpd 63] | 54 | 5.70 | – | –
43 | Nc1ncc(CCNc2nc(=O)n(Cc3ccc(F)cc3)c(=O)n2Cc2ccc(OC(F)F)cc2)[nH]1 [Cpd 53] | 93 | 7.44 | 100 | 7.82
44 | COc1ccc(Cn2c(NCCc3cnc(N)[nH]3)nc(=O)n(Cc3ccc(SC)cc3)c2=O)cc1 [Cpd 61] | 101 | 7.68 | 102 | 7.72
